Experimental data published in ChEMBL document CHEMBL3352494, “New guaiane sesquiterpenes from Artemisia rupestris and their inhibitory effects on nitric oxide production” (Bioorg Med Chem Lett, 2014).

Experiments:
RAW264.7 [1] = assay: Cytotoxicity against mouse RAW264.7 cells at 0.01 to 100 uM after 24 hrs by MTT assay; format: cell-based; settings: raw264.7, 24 h
RAW264.7 [2] = assay: Inhibition of NO production in LPS-stimulated mouse RAW264.7 cells pre-incubated for 2 hrs before LPS stimulation for 24 hrs by Griess assay method; format: functional, cell-based

Row | Structure (SMILES) | Activity (RAW264.7 [1]) | IC50 (RAW264.7 [2])
1 | C=C(C(=O)O)[C@@H]1CC[C@H](C)[C@]2(O)CC(=O)C(C)=C2C1 | Non-toxic | 0.18 µM
2 | C=C(C(=O)O)[C@@H]1CC[C@](C)(O)[C@@H]2CC(=O)C(C)=C2C1 | Non-toxic | 0.47 µM
3 | C=C(C(=O)O[C@@H]1O[C@H](CO)[C@@H](O)[C@H](O)[C@H]1O)[C@@H]1CC[C@H](C)[C@@H]2CC(=O)C(C)=C2C1 | Non-toxic | 4.6 µM
4 | COc1cc(-c2oc3cc(OC)c(OC)c(O)c3c(=O)c2O)ccc1O | Non-toxic | 4.75 µM
5 | COc1ccc(Oc2cc(=O)c3c(O)cc(O[C@@H]4O[C@H](CO)[C@@H](O)[C@H](O)[C@H]4O)cc3o2)cc1 | Non-toxic | 21.4 µM
6 | COc1ccc(-c2cc(=O)c3c(O)cc(O[C@@H]4O[C@H](CO)[C@@H](O)[C@H](O)[C@H]4O)cc3o2)cc1OC | Non-toxic | 9.51 µM
7 | COC(=O)[C@@]1(O)C[C@@H](O)[C@@H](OC(=O)/C=C/c2ccc(O)c(O)c2)[C@H](OC(=O)/C=C/c2ccc(O)c(O)c2)C1 | Non-toxic | 23.3 µM
8 | O=C(/C=C/c1ccc(O)c(O)c1)O[C@@H]1[C@H](O)C[C@](O)(C(=O)O)C[C@H]1OC(=O)/C=C/c1ccc(O)c(O)c1 (relative stereo) | Non-toxic | 20.2 µM
9 | COc1ccc(-c2cc(=O)c3c(O)cc(O[C@@H]4O[C@H](CO[C@@H]5O[C@@H](C)[C@H](O)[C@@H](O)[C@H]5O)[C@@H](O)[C@H](O)[C@H]4O)cc3o2)cc1 [ACACIIN] | Non-toxic | 10 µM
10 | COc1cc(-c2cc(=O)c3c(O)cc(O)cc3o2)ccc1O [CHRYSOERIOL] | – | 0.24 µM
11 | O=c1cc(-c2ccc(O)c(O)c2)oc2cc(O[C@@H]3O[C@H](CO)[C@@H](O)[C@H](O)[C@H]3O)cc(O)c12 [GALUTEOLIN] | Non-toxic | 8.3 µM
12 | O=c1cc(-c2ccc(O)c(O)c2)oc2cc(O)cc(O)c12 [LUTEOLIN] | Non-toxic | 0.21 µM
13 | COc1ccc(-c2cc(=O)c3c(O)c(OC)c(O)c(OC)c3o2)cc1 [NEVADENSIN] | Non-toxic | 5.08 µM
14 | C=C(C(=O)O)[C@@H]1CC[C@H](C)[C@@H]2CC(=O)C(C)=C2C1 [PECHUELOIC ACID] | Non-toxic | 3.04 µM
15 | N=C(N)NN [PIMAGEDINE] | – | 0.23 µM
16 | COc1ccc(-c2cc(=O)c3c(O)cc(O[C@@H]4O[C@H](CO)[C@@H](O)[C@H](O)[C@H]4O)cc3o2)cc1 [TILIANINE] | Non-toxic | 8.94 µM
